Experimental findings from patent publication US20170000133A1, “BENZOXABOROLE FUNGICIDES” (SYNGENTA PARTICIPATIONS AG, priority 2013, published 2017) are described below.

Molecules are shown by their SMILES.

The subject of data set [1] is Monographella nivalis (Microdochium nivale). Briefly: Monographella nivalis (Microdochium nivale) / liquid culture (foot rot cereals). The format is cell-based. The note with it: PDB potato dextrose broth, 24° C., 4-5 days after application, read-out: disease control (inhibition of growth determined photometrically).
The subject of data set [2] is Puccinia recondita f. sp. tritici. Kind of data set: Puccinia recondita f. sp. tritici / wheat / leaf disc preventative (brown rust). The format is in vivo. The conditions noted are these: foliar, wheat leaf segments cv Kanzler, inoculated 1 day after application, assessed 7-9 days after application, read-out: disease control. The text has this:
3. Puccinia recondita f. sp. tritici/Wheat/Leaf Disc Preventative (Brown Rust): Wheat leaf segments cultivated variety (cv) Kanzler were placed on agar in 24-well plates and sprayed with formulated test compound diluted in water at an application rate of 200 ppm. The leaf disks were inoculated with a spore suspension of the fungus 1 day after application.

Data set [3] relates to Thanatephorus cucumeris (Rhizoctonia solani). Kind of data set: Thanatephorus cucumeris (Rhizoctonia solani) / liquid culture (foot rot, damping-off). The format is cell-based. The conditions noted are these: PDB potato dextrose broth, 24° C., 3-4 days after application, read-out: disease control (inhibition of growth determined photometrically). In outline: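 Mycelial fragments from fresh liquid culture were suspended in potato dextrose broth and added to compound in DMSO at 200 ppm. After 3-4 days at 24 °C, growth inhibition was measured photometrically.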

Another data set has as its system Pythium ultimum. Briefly: Pythium ultimum / liquid culture (seedling damping off). The note with it: Globisporangium ultimum; 200 ppm; potato dextrose broth, 24° C., 2-3 days after application; read-out: disease control (inhibition of growth determined photometrically). The format is cell-based.
A further data set deals with Plasmopara viticola. Kind of data set: whole plant or invertebrate. It is filed as in vivo. The note with it: foliar, read-out: disease control.
Data set [4] relates to Mycosphaerella arachidis (Cercospora arachidicola). Briefly: Mycosphaerella arachidis (Cercospora arachidicola) / liquid culture (early leaf spot). The note with it: PDB potato dextrose broth, 24° C., 4-5 days after application, read-out: disease control (inhibition of growth determined photometrically). The format is cell-based. An outline of the steps: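 Conidia from cryogenic storage mixed into potato dextrose broth and added to compound at 200 ppm in DMSO. Incubation at 24° C.; growth inhibition read photometrically 4-5 days after application.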

Data set [5] deals with Glomerella lagenarium (Colletotrichum lagenarium). Briefly: Glomerella lagenarium (Colletotrichum lagenarium) / liquid culture (anthracnose). It is filed as cell-based. The note with it: Colletotrichum orbiculare, PDB potato dextrose broth, 24° C., 3-4 days after application, read-out: disease control (inhibition of growth measured photometrically). An outline of the steps: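 Conidia of G. lagenarium from cryogenic storage were suspended in potato dextrose broth and added to test compound in DMSO at 200 ppm. Plates were incubated at 24° C, and growth inhibition was read photometrically 3-4 days after application.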

A further data set relates to Phytophthora infestans. Kind of data set: whole plant or invertebrate. It is filed as in vivo. The note with it: in Solanum lycopersicum, foliar, read-out: disease control.
The test system of data set [6] is Mycosphaerella graminicola (Septoria tritici). Briefly: Mycosphaerella graminicola (Septoria tritici) / liquid culture (Septoria blotch). The conditions noted are these: Zymoseptoria tritici, PDB potato dextrose broth, 24° C., 4-5 days after application, read-out: disease control (inhibition of growth determined photometrically). The format is cell-based. An outline of the steps:
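Conidia from cryostorage were suspended in potato dextrose broth and added to test compound in DMSO at 200 ppm in microtiter wells. Plates were incubated at 24° C and growth inhibition measured photometrically 4-5 days after application.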

In data set [7] the test system is Botryotinia fuckeliana (Botrytis cinerea). Kind of data set: Botryotinia fuckeliana (Botrytis cinerea) / liquid culture (gray mould). It is filed as cell-based. The note with it: Vogels broth, 24° C., 3-4 days after application, read-out: disease control (inhibition of growth determined photometrically). Here is the method:
10. Botryotinia fuckeliana (Botrytis cinerea)/Liquid Culture (Gray Mould): Conidia of the fungus from cryogenic storage were directly mixed into nutrient broth (Vogels broth). After placing a DMSO solution of test compound into a 96-well microtiter plate at an application rate of 200 ppm, the nutrient broth containing the fungal spores was added. The test plates were incubated at 24° C. and the inhibition of growth was determined photometrically 3-4 days after application.

The subject of a further data set is Gaeumannomyces graminis. Kind of data set: Gaeumannomyces graminis / liquid culture (take-all of cereals). It is filed as cell-based. The note with it: PDB potato dextrose broth, 24° C., 4-5 days after application, read-out: disease control (inhibition of growth determined photometrically). In outline:
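Cryo-stored mycelial fragments in potato dextrose broth exposed to compound in DMSO at 200 ppm. Incubated at 24 °C; growth inhibition read photometrically 4–5 days after application.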

The next data set has as its system Fusarium culmorum. Briefly: microbe, parasite or virus in culture. The format is cell-based. The conditions noted are these: read-out: disease control (inhibition of growth determined visually).

For `O=C(OCC1CCSCC1)c1cc2c(cc1F)COB2O` [Compound 380], the inhibition at 200 ppm (in data set [1]; in data set [3]; with Pythium ultimum; in data set [4]; in data set [5]) was not below 80% each time. Besides, the pest or weed control at 200 ppm (in data set [2]; with Plasmopara viticola) was not below 80% in each case.

The molecule `O=C(NCc1ccccc1F)c1cc2c(cc1F)COB2O` [Compound 107] yielded a melting point of 175 to 177 °C. For the same molecule, the pest or weed control at 200 ppm in the data set with Phytophthora infestans is not below 80%. Moreover, in the data set with Pythium ultimum, the inhibition at 200 ppm is not below 80%. The pest or weed control at 200 ppm with Plasmopara viticola was not below 80%. Also, the inhibition at 200 ppm in [5] was not below 80%.

`COC(=O)c1sccc1NC(=O)c1cc2c(cc1F)COB2O` [Compound 186] showed a melting point of 302 to 304 °C. For the same molecule, the inhibition at 200 ppm in [1] was not below 80%. Also, in the data set with Phytophthora infestans, the pest or weed control at 200 ppm was not below 80%. For the same molecule, the inhibition at 200 ppm in the data set on Pythium ultimum was not below 80%. Moreover, the pest or weed control at 200 ppm with Plasmopara viticola was not below 80%.

On to `C[Si](C)(C)CCCOC(=O)c1cc2c(cc1Cl)COB2O` [Compound 194], for which the inhibition at 200 ppm (in data set [1]; in data set [6]; in [7]; in the data set on Gaeumannomyces graminis; in data set [4]; in data set [5]) was not below 80% each time.

In the case of `C[Si](C)(C)/C=C/COC(=O)c1cc2c(cc1Cl)COB2O` [Compound 216], the inhibition at 200 ppm (in [1]; in data set [6]; in data set [7]; in the data set on Gaeumannomyces graminis; in [4]) was not below 80% each time.

For the molecule `CCCCCCCCCCOC(=O)c1ccc2c(c1)B(O)OC2` [Compound 331], the inhibition at 200 ppm (in data set [6]; in [3]; in the data set with Pythium ultimum; in data set [4]) was not below 80% in each case. Moreover, the pest or weed control at 200 ppm in data set [2] was not below 80%.

On to `Cc1ccc(-c2csc(NC(=O)c3cc4c(cc3F)COB4O)n2)cc1` [Compound 188], for which the inhibition at 200 ppm in [1] was not below 80%. In addition, the pest or weed control at 200 ppm (in [2]; in the data set with Plasmopara viticola) was not below 80% throughout.

As for `COC(=O)C(OC(=O)c1ccc2c(c1)B(O)OC2)c1ccccc1` (stereo not shown) [Compound 349], the inhibition at 200 ppm (in data set [1]; in the data set with Gaeumannomyces graminis; with Pythium ultimum; in [5]) was not below 80% in each case. Further, the pest or weed control at 200 ppm (in data set [2]; in the data set with Plasmopara viticola) was not below 80% in each case.

As for `C[Si](C)(C)COC(=O)c1ccc2c(c1)B(O)OC2` [Compound 367], the inhibition at 200 ppm (in data set [1]; in data set [6]; in data set [3]; in the data set on Gaeumannomyces graminis; in the data set with Pythium ultimum; in data set [5]) was not below 80% each time. In addition, the pest or weed control at 200 ppm (in data set [2]; in the data set on Plasmopara viticola) was not below 80% each time.

Take `C#CC(CC)OC(=O)c1cc2c(cc1Cl)COB2O` (stereo not shown) [Compound 201]: the inhibition at 200 ppm (in data set [1]; in data set [6]; in data set [7]; with Gaeumannomyces graminis; in the data set with Pythium ultimum; in data set [5]) was not below 80% in each case. Also, the pest or weed control at 200 ppm with Plasmopara viticola is not below 80%.

For `Cc1cccc(Cl)c1NC(=O)c1cc2c(cc1F)COB2O` [Compound 150], the melting point lay within 212 to 214 °C. In addition, the inhibition at 200 ppm in [1] was not below 80%. In the data set on Phytophthora infestans, the pest or weed control at 200 ppm is not below 80%. For the same molecule, in the data set with Pythium ultimum, the inhibition at 200 ppm was not below 80%. For the same molecule, the inhibition at 200 ppm in the data set on Fusarium culmorum is not below 80%. Also, the inhibition at 200 ppm in data set [5] is not below 80%.

`O=C(OCc1ccsc1)c1ccc2c(c1)B(O)OC2` [Compound 50] gave a melting point of 130 to 132 °C. Further, in [1], the inhibition at 200 ppm was not below 80%. Moreover, the inhibition at 200 ppm in [6] is not below 80%. Besides, the pest or weed control at 200 ppm in [2] was not below 80%. In addition, in [3], the inhibition at 200 ppm is not below 80%. Moreover, in the data set on Gaeumannomyces graminis, the inhibition at 200 ppm is not below 80%. For the same molecule, the inhibition at 200 ppm with Pythium ultimum was not below 80%. For the same molecule, the pest or weed control at 200 ppm in the data set on Plasmopara viticola was not below 80%. For the same molecule, the inhibition at 200 ppm in [4] was not below 80%. Further, in the data set with Fusarium culmorum, the inhibition at 200 ppm was not below 80%. Besides, in [5], the inhibition at 200 ppm is not below 80%.

In the case of `O=C(OCCc1ccc(Cl)cc1Cl)c1cc2c(cc1F)COB2O` [Compound 370], the inhibition at 200 ppm (in data set [1]; in data set [6]; in data set [3]; in the data set with Gaeumannomyces graminis; in the data set with Pythium ultimum) was not below 80% in each case. For the same molecule, the pest or weed control at 200 ppm in [2] is not below 80%.

As for `O=C(OCc1ccsc1)c1cc2c(cc1F)COB2O` [Compound 441], the melting point fell in the range of 128 to 130 °C. For the same molecule, in data set [1], the inhibition at 200 ppm was not below 80%. In addition, the inhibition at 200 ppm in data set [6] was not below 80%. Besides, the pest or weed control at 200 ppm in data set [2] is not below 80%. Further, the inhibition at 200 ppm in data set [3] is not below 80%. The inhibition at 200 ppm in the data set on Pythium ultimum is not below 80%. Besides, the pest or weed control at 200 ppm in the data set on Plasmopara viticola is not below 80%. Also, in [4], the inhibition at 200 ppm was not below 80%. Also, the inhibition at 200 ppm in the data set with Fusarium culmorum is not below 80%. The inhibition at 200 ppm in data set [5] was not below 80%.

With `O=C(OCCc1ccc(Cl)cc1Cl)c1ccc2c(c1)B(O)OC2` [Compound 312], the inhibition at 200 ppm (in data set [1]; with Gaeumannomyces graminis) was not below 80% throughout. In addition, the pest or weed control at 200 ppm in data set [2] was not below 80%.

`O=C(OCc1cccc2ccccc12)c1cc2c(cc1Cl)COB2O` [Compound 207]: the inhibition at 200 ppm (in data set [1]; with Gaeumannomyces graminis; in the data set on Pythium ultimum) was not below 80% each time. For the same molecule, the pest or weed control at 200 ppm (with Phytophthora infestans; in [2]) was not below 80% in each case.

Take `O=C(NCc1cccc(Cl)c1)c1cc2c(cc1Cl)COB2O` [Compound 85]: the melting point was in the range of 263 to 265 °C. In the data set with Phytophthora infestans, the pest or weed control at 200 ppm is not below 80%. Further, the inhibition at 200 ppm in the data set with Gaeumannomyces graminis is not below 80%. The inhibition at 200 ppm with Pythium ultimum is not below 80%. In addition, the pest or weed control at 200 ppm in the data set on Plasmopara viticola was not below 80%.

On to `CCCCCCCCCCOC(=O)c1cc2c(cc1F)COB2O` [Compound 391], for which, in data set [2], the pest or weed control at 200 ppm is not below 80%. In addition, the inhibition at 200 ppm (in data set [3]; with Gaeumannomyces graminis; with Pythium ultimum; in [4]) was not below 80% in each case.

`Cc1cccc(Cl)c1NC(=O)c1cc2c(cc1Cl)COB2O` [Compound 114]: the inhibition at 200 ppm (in data set [1]; in data set [6]; in the data set with Fusarium culmorum; in data set [5]) was not below 80% each time. Besides, the pest or weed control at 200 ppm in the data set with Phytophthora infestans and in the data set on Plasmopara viticola was not below 80% in each case.

As for `C#CC(OC(=O)c1cc2c(cc1Cl)COB2O)c1ccccc1` (stereo not shown) [Compound 211], the inhibition at 200 ppm (in data set [1]; in data set [6]; in data set [3]; in the data set on Pythium ultimum; in data set [5]) was not below 80% in each case. The pest or weed control at 200 ppm in the data set on Phytophthora infestans and in the data set on Plasmopara viticola was not below 80% throughout.

`COC(=O)c1sccc1NC(=O)c1cc2c(cc1Cl)COB2O` [Compound 169]: the melting point was in the range of 267 to 269 °C. Besides, the inhibition at 200 ppm in data set [1] was not below 80%. For the same molecule, the inhibition at 200 ppm in data set [6] was not below 80%. Further, the pest or weed control at 200 ppm in data set [2] is not below 80%. Further, in the data set on Plasmopara viticola, the pest or weed control at 200 ppm is not below 80%. In addition, the inhibition at 200 ppm in [5] was not below 80%.

One may read the inhibition as the share of the control response that was lost under treatment. One may read the melting point as the temperature of the solid-liquid transition.
